Results taken from the kinase profiling compilation of Christmann-Franck et al. (2016).

Experiments:
Test in all cases: KINOMEscan competition binding
Conditions in all cases: compound 10.0 µM
[1] = target: PRKG2 (human) (UniProt Q13237)
[2] = target: PIK3CA (human) (UniProt P42336)
[3] = target: MST1R (human) (UniProt Q04912)
[4] = target: MINK1 (human) (UniProt Q8N4C8)
[5] = target: EIF2AK1 (human) (UniProt Q9BQI3)
[6] = target: CSNK1D (human) (UniProt P48730)
[7] = target: DCLK2 (human) (UniProt Q8N568)
[8] = target: EGFR (human) (UniProt P00533)
[9] = target: KDR (human) (UniProt P35968)
[10] = target: CDC42BPB (human) (UniProt Q9Y5S2)
[11] = target: PAK2 (human) (UniProt Q13177)
[12] = target: CDK18 (human) (UniProt Q07002)
[13] = target: LYN (human) (UniProt P07948)
[14] = target: ULK2 (human) (UniProt Q8IYT8)
[15] = target: TLK2 (human) (UniProt Q86UE8)
[16] = target: PAK3 (human) (UniProt O75914)
[17] = target: CSNK1A1 (human) (UniProt P48729)
[18] = target: CIT (human) (UniProt O14578)
[19] = target: CDK14 (human) (UniProt O94921)
[20] = target: STK38 (human) (UniProt Q15208)
[21] = target: PIK3C2B (human) (UniProt O00750)
[22] = target: CDK8 (human) (UniProt P49336)
[23] = target: CSNK1G1 (human) (UniProt Q9HCP0)
[24] = target: IKBKB (human) (UniProt O14920)
[25] = target: CDKL3 (human) (UniProt Q8IVW4)
[26] = target: MKNK1 (human) (UniProt Q9BUB5)
[27] = target: STK11 (human) (UniProt Q15831)
[28] = target: GSK3A (human) (UniProt P49840)
[29] = target: RPS6KA2 KD1 (human) (UniProt Q15349)
[30] = target: SRPK1 (human) (UniProt Q96SB4)
[31] = target: LATS2 (human) (UniProt Q9NRM7)
[32] = target: STK38L (human) (UniProt Q9Y2H1)
[33] = target: CDK11B (human) (UniProt P21127)
[34] = target: CDK16 (human) (UniProt Q00536)
[35] = target: ROCK2 (human) (UniProt O75116)
[36] = target: PRPF4B (human) (UniProt Q13523)
[37] = target: MAPK13 (human) (UniProt O15264)
[38] = target: STK25 (human) (UniProt O00506)
[39] = target: CDKL2 (human) (UniProt Q92772)
[40] = target: PDPK1 (human) (UniProt O15530)

Chain of CDK14 (human) (O94921 whole entry, looked up): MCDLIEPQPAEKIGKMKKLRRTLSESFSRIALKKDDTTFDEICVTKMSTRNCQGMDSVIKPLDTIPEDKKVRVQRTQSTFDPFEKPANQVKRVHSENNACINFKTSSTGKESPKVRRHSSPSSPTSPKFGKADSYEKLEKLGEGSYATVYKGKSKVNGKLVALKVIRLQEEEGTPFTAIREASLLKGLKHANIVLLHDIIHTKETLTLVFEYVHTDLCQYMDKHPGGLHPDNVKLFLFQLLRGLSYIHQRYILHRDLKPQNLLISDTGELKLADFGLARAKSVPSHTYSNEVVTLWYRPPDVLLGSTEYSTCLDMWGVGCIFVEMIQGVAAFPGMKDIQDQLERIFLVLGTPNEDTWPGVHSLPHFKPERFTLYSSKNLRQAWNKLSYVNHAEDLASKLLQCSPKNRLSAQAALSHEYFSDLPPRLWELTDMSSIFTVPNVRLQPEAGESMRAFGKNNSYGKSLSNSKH
Chain of CDK18 (human) (Q07002 whole entry, looked up): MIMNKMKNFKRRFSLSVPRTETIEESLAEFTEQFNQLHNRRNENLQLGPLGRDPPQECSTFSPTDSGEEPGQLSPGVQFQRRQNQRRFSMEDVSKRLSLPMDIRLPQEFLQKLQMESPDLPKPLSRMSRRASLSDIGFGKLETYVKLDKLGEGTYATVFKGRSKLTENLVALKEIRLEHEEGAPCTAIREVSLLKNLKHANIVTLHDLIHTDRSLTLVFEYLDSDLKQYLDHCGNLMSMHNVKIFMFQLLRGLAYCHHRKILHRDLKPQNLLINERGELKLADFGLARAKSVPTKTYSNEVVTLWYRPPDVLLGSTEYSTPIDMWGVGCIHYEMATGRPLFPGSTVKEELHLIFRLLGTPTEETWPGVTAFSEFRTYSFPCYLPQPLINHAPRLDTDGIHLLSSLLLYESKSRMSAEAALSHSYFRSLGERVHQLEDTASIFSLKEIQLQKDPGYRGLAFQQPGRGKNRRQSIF
Chain of CDK16 (human) (Q00536 whole entry, looked up): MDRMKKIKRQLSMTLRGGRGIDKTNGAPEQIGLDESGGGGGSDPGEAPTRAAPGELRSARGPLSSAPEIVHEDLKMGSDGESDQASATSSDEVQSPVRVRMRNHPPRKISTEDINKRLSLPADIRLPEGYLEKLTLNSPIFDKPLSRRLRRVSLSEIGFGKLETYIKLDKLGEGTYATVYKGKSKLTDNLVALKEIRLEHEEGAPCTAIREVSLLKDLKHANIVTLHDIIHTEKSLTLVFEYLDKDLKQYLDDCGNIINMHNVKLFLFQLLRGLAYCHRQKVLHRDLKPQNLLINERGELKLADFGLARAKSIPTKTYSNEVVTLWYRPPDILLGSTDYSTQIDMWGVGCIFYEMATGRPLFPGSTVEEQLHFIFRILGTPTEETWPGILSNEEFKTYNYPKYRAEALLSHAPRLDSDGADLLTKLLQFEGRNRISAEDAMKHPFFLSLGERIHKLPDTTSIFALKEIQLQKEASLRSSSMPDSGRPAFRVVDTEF
Chain of CSNK1D (human) (P48730 whole entry, looked up): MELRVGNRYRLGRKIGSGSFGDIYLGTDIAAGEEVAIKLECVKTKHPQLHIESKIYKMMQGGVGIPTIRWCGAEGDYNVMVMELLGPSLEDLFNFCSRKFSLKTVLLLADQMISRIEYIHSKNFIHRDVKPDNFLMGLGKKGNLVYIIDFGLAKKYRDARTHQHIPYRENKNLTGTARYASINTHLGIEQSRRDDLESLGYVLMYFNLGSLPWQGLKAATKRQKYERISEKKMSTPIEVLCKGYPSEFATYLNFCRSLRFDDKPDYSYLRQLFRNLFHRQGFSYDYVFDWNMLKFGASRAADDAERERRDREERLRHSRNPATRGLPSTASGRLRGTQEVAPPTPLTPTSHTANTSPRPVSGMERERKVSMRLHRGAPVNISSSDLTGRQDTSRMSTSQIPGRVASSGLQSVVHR
Chain of EGFR (human) (P00533 whole entry, looked up): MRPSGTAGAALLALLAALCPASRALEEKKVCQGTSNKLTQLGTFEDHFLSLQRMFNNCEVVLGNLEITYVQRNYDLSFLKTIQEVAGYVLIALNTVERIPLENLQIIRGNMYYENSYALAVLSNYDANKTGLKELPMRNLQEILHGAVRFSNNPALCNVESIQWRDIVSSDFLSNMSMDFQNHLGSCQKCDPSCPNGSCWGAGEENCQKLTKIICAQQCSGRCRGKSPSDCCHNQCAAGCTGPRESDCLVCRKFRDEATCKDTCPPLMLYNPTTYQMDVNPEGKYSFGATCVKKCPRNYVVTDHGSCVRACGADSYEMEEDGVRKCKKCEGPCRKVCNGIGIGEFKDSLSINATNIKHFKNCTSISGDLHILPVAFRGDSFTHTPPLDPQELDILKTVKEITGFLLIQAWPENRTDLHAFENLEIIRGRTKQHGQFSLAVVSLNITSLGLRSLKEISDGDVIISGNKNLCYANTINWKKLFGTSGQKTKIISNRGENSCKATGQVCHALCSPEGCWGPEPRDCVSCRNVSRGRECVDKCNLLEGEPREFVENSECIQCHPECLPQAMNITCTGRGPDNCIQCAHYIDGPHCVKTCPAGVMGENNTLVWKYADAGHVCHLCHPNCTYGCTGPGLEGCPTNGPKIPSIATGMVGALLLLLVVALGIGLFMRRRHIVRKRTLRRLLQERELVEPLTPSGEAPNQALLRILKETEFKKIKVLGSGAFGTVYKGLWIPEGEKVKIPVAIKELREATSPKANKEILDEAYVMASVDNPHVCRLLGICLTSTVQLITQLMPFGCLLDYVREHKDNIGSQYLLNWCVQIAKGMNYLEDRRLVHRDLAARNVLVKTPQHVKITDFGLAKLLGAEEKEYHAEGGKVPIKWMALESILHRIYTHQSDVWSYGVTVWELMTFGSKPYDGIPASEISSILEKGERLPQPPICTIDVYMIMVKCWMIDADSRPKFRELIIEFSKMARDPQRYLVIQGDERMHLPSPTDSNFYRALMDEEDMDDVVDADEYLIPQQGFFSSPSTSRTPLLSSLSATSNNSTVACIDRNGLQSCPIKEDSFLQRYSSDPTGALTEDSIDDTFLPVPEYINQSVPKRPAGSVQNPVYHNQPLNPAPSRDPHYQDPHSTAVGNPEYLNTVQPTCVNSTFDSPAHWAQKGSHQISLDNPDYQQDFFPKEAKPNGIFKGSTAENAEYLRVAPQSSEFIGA
Chain of CDKL3 (human) (Q8IVW4 whole entry, looked up): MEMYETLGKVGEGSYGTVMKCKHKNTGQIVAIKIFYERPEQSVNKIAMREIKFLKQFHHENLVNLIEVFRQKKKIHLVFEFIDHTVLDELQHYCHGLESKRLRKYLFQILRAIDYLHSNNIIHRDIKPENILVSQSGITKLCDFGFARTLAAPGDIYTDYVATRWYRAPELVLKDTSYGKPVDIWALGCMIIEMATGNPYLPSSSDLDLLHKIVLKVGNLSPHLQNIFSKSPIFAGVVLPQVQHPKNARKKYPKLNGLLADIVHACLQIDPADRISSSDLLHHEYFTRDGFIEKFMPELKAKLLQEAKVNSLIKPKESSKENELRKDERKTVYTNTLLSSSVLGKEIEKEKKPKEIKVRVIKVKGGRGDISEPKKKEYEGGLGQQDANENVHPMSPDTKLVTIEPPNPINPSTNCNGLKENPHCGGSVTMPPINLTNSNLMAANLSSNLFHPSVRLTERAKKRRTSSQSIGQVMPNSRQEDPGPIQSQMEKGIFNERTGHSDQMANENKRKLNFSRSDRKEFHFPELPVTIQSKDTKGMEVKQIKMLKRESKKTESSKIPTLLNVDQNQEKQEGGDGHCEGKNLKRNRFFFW
Chain of RPS6KA2 KD1 (human) (Q15349 whole entry, looked up): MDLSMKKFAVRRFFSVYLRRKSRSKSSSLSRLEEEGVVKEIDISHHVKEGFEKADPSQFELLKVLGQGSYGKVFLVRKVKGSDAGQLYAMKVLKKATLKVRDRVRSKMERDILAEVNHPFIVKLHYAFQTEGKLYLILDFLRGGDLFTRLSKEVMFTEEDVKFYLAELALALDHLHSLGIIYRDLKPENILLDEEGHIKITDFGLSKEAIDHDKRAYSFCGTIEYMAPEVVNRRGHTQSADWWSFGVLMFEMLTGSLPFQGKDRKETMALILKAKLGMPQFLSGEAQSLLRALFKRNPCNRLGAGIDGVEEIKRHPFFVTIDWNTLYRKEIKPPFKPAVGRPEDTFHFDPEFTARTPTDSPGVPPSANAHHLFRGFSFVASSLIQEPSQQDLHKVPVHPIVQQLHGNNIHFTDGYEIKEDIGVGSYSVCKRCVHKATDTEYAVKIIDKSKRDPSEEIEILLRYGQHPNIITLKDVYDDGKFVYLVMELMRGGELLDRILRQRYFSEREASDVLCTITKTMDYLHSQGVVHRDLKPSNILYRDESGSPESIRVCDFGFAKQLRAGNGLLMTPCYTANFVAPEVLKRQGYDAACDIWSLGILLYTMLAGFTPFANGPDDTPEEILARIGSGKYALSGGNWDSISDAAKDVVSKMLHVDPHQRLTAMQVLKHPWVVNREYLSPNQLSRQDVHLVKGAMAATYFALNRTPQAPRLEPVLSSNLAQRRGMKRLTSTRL
Chain of CSNK1G1 (human) (Q9HCP0 whole entry, looked up): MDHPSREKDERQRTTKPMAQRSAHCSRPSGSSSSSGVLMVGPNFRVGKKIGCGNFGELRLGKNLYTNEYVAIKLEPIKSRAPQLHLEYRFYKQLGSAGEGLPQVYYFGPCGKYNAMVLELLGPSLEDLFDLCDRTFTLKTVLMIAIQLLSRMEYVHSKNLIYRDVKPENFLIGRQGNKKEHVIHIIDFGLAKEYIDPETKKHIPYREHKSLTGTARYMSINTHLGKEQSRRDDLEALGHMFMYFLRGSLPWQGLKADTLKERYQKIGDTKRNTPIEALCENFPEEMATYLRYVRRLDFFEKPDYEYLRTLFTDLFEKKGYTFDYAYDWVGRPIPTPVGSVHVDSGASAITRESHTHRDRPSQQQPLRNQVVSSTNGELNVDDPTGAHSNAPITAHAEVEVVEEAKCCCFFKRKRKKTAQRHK

## CCN1CCN(C(=O)Cc2ccc(Nc3ncc(F)c(Nc4ccc(C(=O)Nc5ccccc5Cl)cc4)n3)cc2)CC1
[1]
  kinase still bound, per cent of control: 62%
[2]
  kinase still bound, per cent of control: 83%
[3]
  kinase still bound, per cent of control: 100%
[4]
  kinase still bound, per cent of control: 57%
[5]
  kinase still bound, per cent of control: 66%
[6]
  kinase still bound, per cent of control: 100%
[7]
  kinase still bound, per cent of control: 88%
[8]
  kinase still bound, per cent of control: 26%
[9]
  kinase still bound, per cent of control: 16%
[10]
  kinase still bound, per cent of control: 100%
[11]
  kinase still bound, per cent of control: 56%
[12]
  kinase still bound, per cent of control: 43%
[13]
  kinase still bound, per cent of control: 46%
[14]
  kinase still bound, per cent of control: 77%
[15]
  kinase still bound, per cent of control: 33%
[16]
  kinase still bound, per cent of control: 12%
[17]
  kinase still bound, per cent of control: 96%
[18]
  kinase still bound, per cent of control: 27%
[19]
  kinase still bound, per cent of control: 53%
[20]
  kinase still bound, per cent of control: 70%
[21]
  kinase still bound, per cent of control: 93%
[22]
  kinase still bound, per cent of control: 46%
[23]
  kinase still bound, per cent of control: 100%
[24]
  kinase still bound, per cent of control: 27%
[25]
  kinase still bound, per cent of control: 89%
[26]
  kinase still bound, per cent of control: 100%
[27]
  kinase still bound, per cent of control: 12%
[28]
  kinase still bound, per cent of control: 88%
[29]
  kinase still bound, per cent of control: 65%
[30]
  kinase still bound, per cent of control: 1.9%
[31]
  kinase still bound, per cent of control: 100%
[32]
  kinase still bound, per cent of control: 60%
[33]
  kinase still bound, per cent of control: 87%
[34]
  kinase still bound, per cent of control: 40%
[35]
  kinase still bound, per cent of control: 75%
[36]
  kinase still bound, per cent of control: 18%
[37]
  kinase still bound, per cent of control: 100%
[38]
  kinase still bound, per cent of control: 35%
[39]
  kinase still bound, per cent of control: 24%
[40]
  kinase still bound, per cent of control: 96%

## COc1cc2ncnc(-n3nc(-c4ccccn4)nc3N)c2cc1OC
[1]
  kinase still bound, per cent of control: 75%
[2]
  kinase still bound, per cent of control: 38%
[3]
  kinase still bound, per cent of control: 100%
[4]
  kinase still bound, per cent of control: 40%
[5]
  kinase still bound, per cent of control: 51%
[6]
  kinase still bound, per cent of control: 2.8%
[7]
  kinase still bound, per cent of control: 88%
[8]
  kinase still bound, per cent of control: 52%
[9]
  kinase still bound, per cent of control: 52%
[10]
  kinase still bound, per cent of control: 100%
[11]
  kinase still bound, per cent of control: 37%
[12]
  kinase still bound, per cent of control: 62%
[13]
  kinase still bound, per cent of control: 48%
[14]
  kinase still bound, per cent of control: 3%
[15]
  kinase still bound, per cent of control: 40%
[16]
  kinase still bound, per cent of control: 12%
[17]
  kinase still bound, per cent of control: 1.4%
[18]
  kinase still bound, per cent of control: 30%
[19]
  kinase still bound, per cent of control: 62%
[20]
  kinase still bound, per cent of control: 51%
[21]
  kinase still bound, per cent of control: 0.35%
[22]
  kinase still bound, per cent of control: 100%
[23]
  kinase still bound, per cent of control: 33%
[24]
  kinase still bound, per cent of control: 45%
[25]
  kinase still bound, per cent of control: 5.3%
[26]
  kinase still bound, per cent of control: 51%
[27]
  kinase still bound, per cent of control: 100%
[28]
  kinase still bound, per cent of control: 73%
[29]
  kinase still bound, per cent of control: 76%
[30]
  kinase still bound, per cent of control: 83%
[31]
  kinase still bound, per cent of control: 11%
[32]
  kinase still bound, per cent of control: 69%
[33]
  kinase still bound, per cent of control: 93%
[34]
  kinase still bound, per cent of control: 47%
[35]
  kinase still bound, per cent of control: 20%
[36]
  kinase still bound, per cent of control: 93%
[37]
  kinase still bound, per cent of control: 100%
[38]
  kinase still bound, per cent of control: 33%
[39]
  kinase still bound, per cent of control: 2%
[40]
  kinase still bound, per cent of control: 90%
